The text below walks through data of patent publication US8193235B2, “Compositions and methods for establishing and maintaining stem cells in an undifferentiated state” (University of Kansas, priority 2009, dated 2012).

Experiment [1] deals with T1, PKC ζ (Mus musculus, UniProt Q02956).
T1 construct: endogenous in cells; host or cells: mouse ES cells (E14)
Briefly: Western blot analysis of p-PKC ζ in ES cells. It is filed as cell-based. As to the method: Western Blot Analysis. Whole cell lysates were prepared in SDS-gel loading buffer and resolved by 10% PAGE. The antibodies used for this study included β-actin Clone AC-15 from Sigma; p-STAT3 (Tyr705), p-p44/42 MAPK (tyr202/tyr204), p44/42 MAPK, GSK3β, Phospho Akt (Ser473), Akt, p-NFκβ p65 (Ser536), c-Myc, p-c-Myc (Thr58/Ser62), p-p90RSK (Thr359/Ser363), RSK1, Suz12 (D39F6), and Ezh2 (AC22) from Cell Signaling Technology; STAT3 (C-20), Oct-4 (C-10), Nanog (M-149), PKC α (C-20), PKC βI (C-16), PKC βII (C-18), PKC γ (C-19), PKC δ (C-20), PKC ζ (c-20), p-PKC ζ (Thr 410)-R, p-NFκβ p65 (ser311), and RelA (p65) from Santa Cruz Biotechnology; p-LGL1/LGL2 (S650/S654), SSEA4and H3K4Me3 from Abcam; LGL2 (M06), clone 4G2 from Abnova; β-Catenin from BD Transduction Laboratories, and H3K27Me3 and H3K9Me3 from Millipore.
On the technique in general: In western blotting, separated proteins are transferred to a membrane and probed.

The subject of experiment [2] is NF-κB target genes. Briefly: RT-PCR analysis of NF-κB target gene expression. It is filed as cell-based, mouse. As to the method:
Quantitative RT-PCR Analysis. RNA was extracted from different cell samples with TRIZOL reagent (Invitrogen). cDNA was prepared by annealing RNA (1 μg) with 250 ng of a 5:1 mixture of random and oligo(dT) primers heated at 68° C. for 10 minutes. This was followed by incubation with Moloney murine leukemia virus reverse transcriptase (50 units) (Invitrogen, Carlsbad, Calif.) combined with 10 mM DTT, RNasin (PROMEGA, Madison, Wis.), and 0.5 mM dNTPs at 42° C. for 1 hour. Reactions were diluted to a final volume of 100 μl and heat inactivated at 97° C. for 5 minutes. Twenty μl PCR reactions contained 2 μl cDNA, 10 μl SYBR Green Master Mix (Applied Biosystems, Foster City, Calif.) and corresponding primer sets. Relative expression levels were determined from a standard curve of serial dilutions of proliferating ES cell cDNA samples and were normalized to the expression of glyceraldehyde-3-phosphate dehydrogenase (GAPDH). At least three independent experiments were done for each set of data.

T1 sequence (Q02956 whole entry): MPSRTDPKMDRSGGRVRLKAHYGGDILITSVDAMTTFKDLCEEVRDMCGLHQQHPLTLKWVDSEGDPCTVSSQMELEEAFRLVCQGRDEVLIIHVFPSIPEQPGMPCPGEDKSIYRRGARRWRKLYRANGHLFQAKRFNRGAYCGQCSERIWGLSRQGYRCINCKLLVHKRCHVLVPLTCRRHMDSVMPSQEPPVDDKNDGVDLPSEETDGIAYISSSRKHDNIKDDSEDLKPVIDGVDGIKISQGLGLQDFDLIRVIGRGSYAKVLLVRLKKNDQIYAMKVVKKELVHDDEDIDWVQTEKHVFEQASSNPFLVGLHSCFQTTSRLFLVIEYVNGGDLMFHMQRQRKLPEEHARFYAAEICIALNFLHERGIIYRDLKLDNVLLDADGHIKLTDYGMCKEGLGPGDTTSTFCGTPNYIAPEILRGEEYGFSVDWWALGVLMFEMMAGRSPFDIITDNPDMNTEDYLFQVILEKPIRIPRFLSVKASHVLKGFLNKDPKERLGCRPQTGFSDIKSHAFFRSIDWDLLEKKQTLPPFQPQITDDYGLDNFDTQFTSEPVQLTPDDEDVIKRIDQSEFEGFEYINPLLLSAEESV

For `COc1ccc2c(c1)c(C1=C(c3c[nH]c4ccccc34)C(=O)NC1=O)cn2CCCN(C)C` [Gö6983, 3-[1-[3-(dimethylamino)propyl]5-methoxy-1H-indol-3-yl]-4-(1H-indol-3-yl)-1H-pyrrole-2,5-dione], the “PKC ζ phosphorylation in ES cells” value in experiment [1] was “almost completely inhibited”. Further, the “activation of NF-κB target gene transcription” value in experiment [2] (E14 cells, absence of LIF, FIG. 3A) is listed as “inhibited their activation”. In addition, the “activation of NF-κB target genes, RelA phosphorylation and reporter Luciferase” value in experiment [2] (PKCζkd cells cultured on collagen IV) is “inhibited the activation”.
